Measurements reported in patent US7915050B2, “Regulatory genes for plant differentiation and growth, and use of the same” (National University Corporation Nagoya University, priority 2005, dated 2011).

Tests used:
GID1 = target: T1, GID1 (Oryza sativa subsp. japonica, UniProt Q6L545); assay: Competition of various GAs in the binding of the 3H-GA4 derivative to GID1 protein; set-up: species or system rice
T1 construct: GST (tag of vector pGEX-4T) (N); made in house
Experimental: In the gibberellin-binding assay, [1,2,16,17-^3H4]16,17-dihydro-GA4 was used as a labeled GA4. In vitro GA-binding assays were carried out using previous methods with some modifications (Nakajima, M. et al., Biochem. Biophys. Res. Comm. 241, 782-786 (1997)). The purified recombinant GID1 protein (400 pmol) was dissolved in 300 μl of binding buffer [20 mM Tris-HCl (pH 7.6), 5 mM 2-mercaptoethanol, and 0.1 M NaCl], and incubated with 100 μl of ^3H4-16,17-dihydroGA4 (6 pmol) for two hours at 25° C., either in the absence of non-labeled GA4 (total binding) or in the presence of 833-fold excess non-labeled GA4 (total non-specific binding). Then, 0.1 ml of the reaction mixture was loaded onto a NAP-5 column (Amersham Biosciences, Piscataway, N.J.). The eluate of the binding buffer (0.6 ml) was discarded, the subsequent eluate (0.2 ml) was collected, and the radioactivity was measured. The specific binding activity, reflecting the number of displaceable GA binding sites, was calculated by subtracting the amount of nonspecific binding from the amount of total binding. The same as above can also be carried out for other GAs.
Thus, it was postulated that, like GID2, GID1 is involved in the degradation of SLR1, or that GID1 functions upstream of SLR1 in GA signaling. […] Based on this phenotypic characteristic of gid1, it was predicted that GID1 was involved in GA perception. To verify this possibility, the interactions between GID1 and radioisotope-labeled GA was directly examined using non-equilibrium gel filtration (Nakajima, M. et al., Biochem. Biophys. Res. Comm. 241, 782-786 (1997)). […] Next, ligand specificity of GID1 was tested by using competition between the tritiated GA4 derivative and various GAs. The concentration of each GA that is required for a 50% inhibition (IC50) of the binding of the tritiated GA4 derivative to GID1 is shown in Table 1. […] The IC50 value for each of these GAs was well consistent with their physiological activity.

[1] = target: T2, AtGID1c in the presence of RGA (Arabidopsis thaliana, UniProt Q940G6); assay: Scatchard analysis of AtGID1c-GA binding in the presence of RGA
T2 construct: made in house; host or cells: E. coli (stated for AtGID1)
T2 sequence (Q940G6 1-344): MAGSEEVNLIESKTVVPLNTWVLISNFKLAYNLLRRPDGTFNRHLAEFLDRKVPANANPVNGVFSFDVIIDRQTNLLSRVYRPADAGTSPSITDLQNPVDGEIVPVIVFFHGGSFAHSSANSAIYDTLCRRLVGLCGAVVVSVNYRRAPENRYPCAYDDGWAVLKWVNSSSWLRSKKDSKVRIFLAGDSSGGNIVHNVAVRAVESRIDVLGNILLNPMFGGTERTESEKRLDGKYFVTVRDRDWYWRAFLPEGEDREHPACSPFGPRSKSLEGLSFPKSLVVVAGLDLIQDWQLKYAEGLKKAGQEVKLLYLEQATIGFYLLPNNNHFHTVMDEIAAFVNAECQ
T2 sequence (Q9SLH3 1-587 partner): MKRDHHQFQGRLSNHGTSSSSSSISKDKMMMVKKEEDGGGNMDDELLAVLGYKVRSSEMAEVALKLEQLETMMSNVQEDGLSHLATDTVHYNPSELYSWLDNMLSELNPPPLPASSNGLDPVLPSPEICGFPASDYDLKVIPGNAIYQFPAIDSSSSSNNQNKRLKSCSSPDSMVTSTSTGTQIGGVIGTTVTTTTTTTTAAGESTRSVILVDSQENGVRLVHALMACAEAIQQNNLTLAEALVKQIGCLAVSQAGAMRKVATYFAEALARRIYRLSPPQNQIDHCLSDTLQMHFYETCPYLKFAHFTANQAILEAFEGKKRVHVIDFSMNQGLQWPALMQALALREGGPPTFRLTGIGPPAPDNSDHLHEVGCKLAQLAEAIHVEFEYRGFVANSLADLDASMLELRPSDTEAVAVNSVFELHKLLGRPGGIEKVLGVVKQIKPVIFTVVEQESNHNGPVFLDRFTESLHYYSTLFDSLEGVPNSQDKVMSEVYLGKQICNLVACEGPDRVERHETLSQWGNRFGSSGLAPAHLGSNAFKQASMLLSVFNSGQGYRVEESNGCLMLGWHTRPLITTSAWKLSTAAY
Experimental: Panel A) depicts AtGID1-AtDELLA interaction in the presence of GA in two types of yeast hybrid (Y2H) assays. Each AtGID1 was used as a bait while AtDELLA was a prey. GA4 (10^−5 M) was added to the medium. The bars indicates β-galactosidase activity when o-nitrophenol-β-D-galactopyranoside was used as a substrate (Assay B). The growth of each transformant in the defined medium for 2 days (Assay A) is shown beneath of each bar graph. The experiment was carried out in quadruplicate. The SD value shown in the figure was determined from three measurements. Panel B) depicts the dose response in AtGID1-RGA interaction in Assay B of Y2H. GA4 (10^−5 to 10^−9 M) was added to the medium. The experiment was conducted in […]. The SD value shown in the figure was determined from three measurements. Panel C) depicts the results of an evaluation of the in vitro GA-binding potency of AtGID1 using AtDELLA. […] GAI (G) or RGA (R) was added, and then the GA-binding activity in each reaction mixture was measured according to the standard method. […] The SD value was determined from three measurements. […]
Next, whether AtDELLAs exert some kind of influence on the GA-binding activity of AtGID1s was examined in vitro. After labeled 16,17-dihydro-GA4 and AtGID1s were combined, AtDELLAs were added to the solutions, and the GA-binding activity was measured. […]

[2] = tested on: GA-deficient Arabidopsis mutant ga1-3 seeds; assay: Germination of GA-deficient ga1-3 seeds; type: in vivo
Experimental: The germination of GA-deficient gal-3 seeds in a medium containing 16,17-dihydro-GA4 was tested, according to the method of Yamaguchi et al. (Plant Cell, 10, 2115-2126, […]). Approximately 70 to 80 seeds were used per each dish. Three independent measurements were carried, and the standard deviation (SD) was determined from these measurements. The seeds were assessed for germination at 23° C. on day 4, after cold treatment at 4° C. for 3 days. GA4 was used as a reference.

T1 sequence (Q6L545 whole entry): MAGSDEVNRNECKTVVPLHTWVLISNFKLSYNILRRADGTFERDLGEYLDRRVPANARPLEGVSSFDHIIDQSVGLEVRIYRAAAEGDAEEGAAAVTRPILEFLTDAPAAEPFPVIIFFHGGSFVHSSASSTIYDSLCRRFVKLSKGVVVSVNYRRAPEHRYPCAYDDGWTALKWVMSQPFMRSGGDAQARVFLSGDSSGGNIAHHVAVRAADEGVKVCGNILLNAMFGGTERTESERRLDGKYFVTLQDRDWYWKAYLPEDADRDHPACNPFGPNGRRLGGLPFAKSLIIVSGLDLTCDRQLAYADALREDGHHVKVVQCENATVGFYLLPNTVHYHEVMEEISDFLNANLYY

With CC1C[C@]23C[C@H]1CCC2[C@]12CC[C@H](O)[C@](C)(C(=O)O1)[C@H]2[C@@H]3C(=O)O (some centres unmarked) [H2-GA4, 16,17-dihydro-GA4] the “affinity of recombinant GID1 for the GA (in words)” value (GID1) was “high affinity”, the IC50 (GID1; competition with tritiated GA4 derivative for binding to recombinant GID1, read-out: IC50 (concentration required for 50% inhibition)) was 1 µM and the “Rel % (relative value)” value (GID1; relative competition, GA4 given as 100) was “(20) %”. For the same molecule, the Kd [1] was 0.012 µM and the “physiological effect on germination relative to GA4” value [2] was “about 1/10”.
